{"source": "patent US7223769B2", "about": "“Pyrimidine compounds and their use as pesticides” (Sumitomo Chemical Company, Limited, priority 2002, dated 2007)", "data": [{"test_system": "Frankliniella occidentalis (Western flower thrips)", "test": "Test Example 2: sprayed cucumber leaf, larvae of Frankliniella occidentalis set free, surviving pests counted", "assay_type": "in vivo", "settings": "500 ppm spray solution, 20 ml/cup, cucumber first true leaf, thirty larvae set free, after seven days", "description": "Ten parts of each of the present compounds (2), (4), (6), (7), (8), (11), (12), (14), (16), (17), (19) to (24), (26), (28), (29), (34), (36) to (38), and (40); white carbon containing 50 parts of polyoxyethylene alkyl ether sulfate ammonium salt; and […] of water were mixed and pulverized by the wet grinding method to give a formulation for each compound. The formulation of each present compound was diluted with water so that the active ingredient concentration came to 500 ppm to prepare a spray solution.\nA polyethylene cup was seeded with cucumber and a plant was grown until the first true leaf was developed, to which the above spray solution was applied at a ratio of 20 ml/cup. After the chemical solution sprayed to the cucumber were dried, the first true leaf was cut off and placed on a filter paper (70 mm in diameter) impregnated with water in a polyethylene cup (110 mm in diameter). Thirty larvae of Frankliniella occidentalis (Western flower thrips) were set free on the first true leaf, which was covered with a polyethylene cup. After seven days, the number of surviving pests was examined.", "values": [{"smiles": "CC#CCOc1cc(OC(C)C2CC2)ncn1", "note": "(stereo not drawn) [present compound (2), 4-(2-butynyloxy)-6-(1-cyclopropylethoxy)pyrimidine]", "number of surviving pests": 0}, {"smiles": "CC#CCOc1cc(OC(CC)C(C)(C)C)ncn1", "note": "(stereo not drawn) [present compound (4), 4-(2-butynyloxy)-6-(1-ethyl-2,2-dimethylpropyloxy)pyrimidine]", "number of surviving pests": 0}, {"smiles": "CC#CCOc1cc(OCC(C)(C)C)ncn1", "note": "[present compound (6), 4-(2-butynyloxy)-6-(2,2-dimethylpropyloxy)pyrimidine]", "number of surviving pests": 0}, {"smiles": "CC#CCOc1cc(OC(C)CC(C)(C)C)ncn1", "note": "(stereo not drawn) [present compound (7), 4-(2-butynyloxy)-6-(1,3,3-trimethylbutyloxy)pyrimidine]", "number of surviving pests": 0}, {"smiles": "CC#CCOc1cc(OC(C)C2(C)CC2)ncn1", "note": "(stereo not drawn) [present compound (8), 4-(2-butynyloxy)-6-[1-(1-methylcyclopropyl)ethyloxy]pyrimidine]", "number of surviving pests": 0}, {"smiles": "CC#CCOc1cc(OCCC(C)(C)C)ncn1", "note": "[present compound (11), 4-(2-butynyloxy)-6-(3,3-dimethylbutyloxy)pyrimidine]", "number of surviving pests": 0}, {"smiles": "CC#CCOc1cc(OC(C)C(C)C)ncn1", "note": "(stereo not drawn) [present compound (12), 4-(2-butynyloxy)-6-(1,2-dimethylpropyloxy)pyrimidine]", "number of surviving pests": 0}, {"smiles": "CC#CCOc1cc(OC(C)C(C)(C)F)ncn1", "note": "(stereo not drawn) [present compound (14), 4-(2-butynyloxy)-6-(2-fluoro-1,2-dimethylpropyloxy)pyrimidine]", "number of surviving pests": 0}, {"smiles": "CC#CCOc1cc(OC(C)C(C)CC)ncn1", "note": "(stereo not drawn) [present compound (16), 4-(2-butynyloxy)-6-(1,2-dimethylbutyloxy)pyrimidine]", "number of surviving pests": 0}, {"smiles": "CCC#CCOc1cc(OC(C)C(C)(C)F)ncn1", "note": "(stereo not drawn) [present compound (17), 4-(2-fluoro-1,2-dimethylpropyloxy)-6-(2-pentynyloxy)pyrimidine]", "number of surviving pests": 0}, {"smiles": "CC#CCOc1cc(OC(C)C2CCCC2)ncn1", "note": "(stereo not drawn) [present compound (26), 4-(2-butynyloxy)-6-(1-cyclopentylethyloxy)pyrimidine]", "number of surviving pests": 0}, {"smiles": "CC#CCOc1cc(OCC(C)(C)F)ncn1", "note": "[present compound (28), 4-(2-butynyloxy)-6-(2-fluoro-2-methylpropyloxy)pyrimidine]", "number of surviving pests": 0}, {"smiles": "CC#CCOc1cc(OC(C)C(Cl)Cl)ncn1", "note": "(stereo not drawn) [present compound (29), 4-(2-butynyloxy)-6-(2,2-dichloro-1-methylethyloxy)pyrimidine]", "number of surviving pests": 0}, {"smiles": "CC#CCOc1cc(OC(C)C(C)(C)Cl)ncn1", "note": "(stereo not drawn) [present compound (34), 4-(2-butynyloxy)-6-(2-chloro-1,2-dimethylpropyloxy)pyrimidine]", "number of surviving pests": 0}, {"smiles": "CCC#CCOc1cc(OCC(C)(C)Cl)ncn1", "note": "[present compound (40), 4-(2-pentynyloxy)-6-(2-chloro-2-methylpropyloxy)pyrimidine]", "number of surviving pests": 0}]}]}
